Experimental data as given in US20260285850A1, “SUBSTITUTED OXAZOLIDINONES AND IMIDAZOLINONES AS HERBICIDES” (FMC CORPORATION, priority 2023, published 2026).

Key:
Type in all cases: in vivo
[1] = system: barnyardgrass (Echinochloa crus-galli); assay: Test A preemergence soil spray, visual injury rating 0-100; conditions: 10 days, 0 = no effect, 100 = complete control
Procedure, shortened: (§1)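 Loam-sand pots got test material in surfactant-containing solvent, either as a directed soil spray before emergence or on plants at the one- to two-leaf stage. Visual injury (0-100) was read after ten greenhouse days.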

[2] = system: blackgrass (Alopecurus myosuroides); assay: as above; conditions: 10 days, 0 = no effect, 100 = complete control
Procedure, shortened: as §1

[3] = system: corn (Zea mays); assay: as above; conditions: 10 days, 0 = no effect, 100 = complete control
Procedure, shortened: as §1

[4] = system: green foxtail (Setaria viridis); assay: as above; conditions: 10 days, 0 = no effect, 100 = complete control
Procedure, shortened: as §1

[5] = system: kochia (Bassia scoparia); assay: as above; conditions: 10 days, 0 = no effect, 100 = complete control
Procedure, shortened: as §1

[6] = system: oat, wild (wild oat, Avena fatua); assay: as above; conditions: 10 days, 0 = no effect, 100 = complete control
Procedure, shortened: as §1

[7] = system: palmer (palmer amaranth, palmer pigweed, Amaranthus palmeri); assay: as above; conditions: 10 days, 0 = no effect, 100 = complete control
Procedure, shortened: as §1

[8] = system: ragweed (common ragweed, Ambrosia artemisiifolia); assay: as above; conditions: 10 days, 0 = no effect, 100 = complete control
Procedure, shortened: as §1

[9] = system: ryegrass, Italian (italian ryegrass, Lolium multiflorum); assay: as above; conditions: 10 days, 0 = no effect, 100 = complete control
Procedure, shortened: as §1

[10] = system: soybean (Glycine max); assay: as above; conditions: 10 days, 0 = no effect, 100 = complete control
Procedure, shortened: as §1

[11] = system: wheat (Triticum aestivum); assay: as above; conditions: 10 days, 0 = no effect, 100 = complete control
Procedure, shortened: as §1

[12] = system: barnyardgrass (Echinochloa crus-galli); assay: Test A postemergence application, visual injury rating 0-100; conditions: 10 days
Procedure, shortened: as §1

[13] = system: blackgrass (Alopecurus myosuroides); assay: as above; conditions: 10 days
Procedure, shortened: as §1

[14] = system: corn (Zea mays); assay: as above; conditions: 10 days
Procedure, shortened: as §1

[15] = system: galium (catchweed bedstraw, Galium aparine); assay: as above; conditions: 10 days
Procedure, shortened: as §1

[16] = system: green foxtail (Setaria viridis); assay: as above; conditions: 10 days
Procedure, shortened: as §1

[17] = system: horseweed (Erigeron canadensis); assay: as above; conditions: 10 days
Procedure, shortened: as §1

[18] = system: kochia (Bassia scoparia); assay: as above; conditions: 10 days
Procedure, shortened: as §1

[19] = system: oat, wild (wild oat, Avena fatua); assay: as above; conditions: 10 days
Procedure, shortened: as §1

[20] = system: palmer (palmer amaranth, palmer pigweed, Amaranthus palmeri); assay: as above; conditions: 10 days
Procedure, shortened: as §1

[21] = system: ragweed (common ragweed, Ambrosia artemisiifolia); assay: as above; conditions: 10 days
Procedure, shortened: as §1

[22] = system: ryegrass, Italian (italian ryegrass, Lolium multiflorum); assay: as above; conditions: 10 days
Procedure, shortened: as §1

[23] = system: soybean (Glycine max); assay: as above; conditions: 10 days
Procedure, shortened: as §1

[24] = system: wheat (Triticum aestivum); assay: as above; conditions: 10 days
Procedure, shortened: as §1

[25] = system: barnyardgrass (Echinochloa crusgalli); assay: Test B flooded paddy test, visual plant response rating 0-100; conditions: 250 g ai/ha, Flood, applied to paddy water, evaluated after 13 days
Procedure, shortened: (§2)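 Greenhouse, 13 d. Seedlings at 2-leaf stage, pots flooded to 3 cm, compound delivered into floodwater, water level held constant. Evaluated visually relative to controls.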

[26] = system: ducksalad (Heteranthera limosa); assay: as above; conditions: 250 g ai/ha, Flood, applied to paddy water, evaluated after 13 days
Procedure, shortened: as §2

[27] = system: rice (Oryza sativa); assay: as above; conditions: 250 g ai/ha, Flood, applied to paddy water, evaluated after 13 days
Procedure, shortened: as §2

[28] = system: sedge, umbrella (small-flower umbrella sedge, Cyperus difformis); assay: as above; conditions: 250 g ai/ha, Flood, applied to paddy water, evaluated after 13 days
Procedure, shortened: as §2

[29] = 31 g ai/ha, postemergence, 0 = no effect, 100 = complete control
[30] = Postemergence, 125 g ai/ha, 0 is no effect, 100 is complete control

For `CC1(C(=O)NC2C=CC(C(=O)OCc3ccc(F)cc3)C2)CN(c2cc(F)cc(F)c2)C(=O)O1` (stereo not shown) [Compound 54], the “Barnyardgrass plant response rating (0-100)” value ([1]; 31 g ai/ha) was 30, the “Barnyardgrass plant response rating (0 to 100 scale)” value ([1]; 125 g ai/ha) was 100 and the “Blackgrass plant response rating (0-100)” value ([2]; 31 g ai/ha) was 20. The “Blackgrass plant response rating (0 to 100 scale)” value ([2]; 125 g ai/ha) was 60, the “Corn plant response rating (0-100)” value ([3]; 31 g ai/ha) was 0 and the “Corn plant response rating (0 to 100 scale)” value ([3]; 125 g ai/ha) was 30. The “Foxtail, Green plant response rating (0-100)” value ([4]; 31 g ai/ha) was 0, the “Foxtail, Green plant response rating (0 to 100 scale)” value ([4]; 125 g ai/ha) was 30 and the “Kochia plant response rating (0-100)” value ([5]; 31 g ai/ha) was 0. The “Kochia plant response rating (0 to 100 scale)” value ([5]; 125 g ai/ha) was 90, the “Oat, Wild plant response rating (0-100)” value ([6]; 31 g ai/ha) was 0 and the “Oat, Wild plant response rating (0 to 100 scale)” value ([6]; 125 g ai/ha) was 90. The “Amaranth, Palmer plant response rating (0-100)” value ([7]; 31 g ai/ha) was 10, the “Amaranth, Palmer plant response rating (0 to 100 scale)” value ([7]; 125 g ai/ha) was 100 and the “Ragweed plant response rating (0-100)” value ([8]; 31 g ai/ha) was 0. For the same compound, the “Ragweed plant response rating (0 to 100 scale)” value ([8]; 125 g ai/ha) was 0, the “Ryegrass, Italian plant response rating (0-100)” value ([9]; 31 g ai/ha) was 50 and the “Ryegrass, Italian plant response rating (0 to 100 scale)” value ([9]; 125 g ai/ha) was 100. The “Soybean plant response rating (0-100)” value ([10]; 31 g ai/ha) was 10, the “Soybean plant response rating (0 to 100 scale)” value ([10]; 125 g ai/ha) was 70 and the “Wheat plant response rating (0-100)” value ([11]; 31 g ai/ha) was 80. The “Wheat plant response rating (0 to 100 scale)” value ([11]; 125 g ai/ha) was 90, the “Barnyardgrass plant response rating (0-100)” value [12, 29] was 70 and the “Barnyardgrass plant response rating (0 to 100 scale)” value [12, 30] was 100. The “Blackgrass plant response rating (0-100)” value [13, 29] was 80, the “Blackgrass plant response rating (0 to 100 scale)” value [13, 30] was 90 and the “Corn plant response rating (0-100)” value [14, 29] was 90. The “Corn plant response rating (0 to 100 scale)” value [14, 30] was 100, the “Galium plant response rating (0-100)” value [15, 29] was 80 and the “Galium plant response rating (0 to 100 scale)” value [15, 30] was 80. For the same compound, the “Foxtail, Green plant response rating (0-100)” value [16, 29] was 40, the “Foxtail, Green plant response rating (0 to 100 scale)” value [16, 30] was 60 and the “Horseweed plant response rating (0-100)” value [17, 29] was 20. The “Horseweed plant response rating (0 to 100 scale)” value [17, 30] was 80, the “Kochia plant response rating (0-100)” value [18, 29] was 70 and the “Kochia plant response rating (0 to 100 scale)” value [18, 30] was 90. The “Oat, Wild plant response rating (0-100)” value [19, 29] was 90, the “Oat, Wild plant response rating (0 to 100 scale)” value [19, 30] was 100 and the “Amaranth, Palmer plant response rating (0-100)” value [20, 29] was 90. The “Amaranth, Palmer / Pigweed, Palmer plant response rating (0 to 100 scale)” value [20, 30] was 100, the “Ragweed plant response rating (0-100)” value [21, 29] was 50 and the “Ragweed plant response rating (0 to 100 scale)” value [21, 30] was 60. For the same compound, the “Ryegrass, Italian plant response rating (0-100)” value [22, 29] was 70, the “Ryegrass, Italian plant response rating (0 to 100 scale)” value [22, 30] was 90 and the “Soybean plant response rating (0-100)” value [23, 29] was 60. For the same compound, the “Soybean plant response rating (0 to 100 scale)” value [23, 30] was 60, the “Wheat plant response rating (0-100)” value [24, 29] was 90 and the “Wheat plant response rating (0 to 100 scale)” value [24, 30] was 90. The “Plant response rating, Barnyardgrass (0 to 100 scale, 0 is no effect and 100 is complete control)” value [25] was 90, the “Plant response rating, Ducksalad (0 to 100 scale, 0 is no effect and 100 is complete control)” value [26] was 95 and the “Plant response rating, Rice (0 to 100 scale, 0 is no effect and 100 is complete control)” value [27] was 15. For the same compound, the “Plant response rating, Sedge, Umbrella (0 to 100 scale, 0 is no effect and 100 is complete control)” value [28] was 95.
